“Also recorded” adds a separate entry of the source. Where two headings read alike, the source gives them in different places.
Legend:
[1] = Solid storage stability test; type: physicochemical; settings: for chemical and physical stability after storage: solid/25° C./60% RH/open/1 week and/or solid/60° C./closed container/1 week
Procedure: Each amorphous salt solid was weighed (two 2 mg samples were weighed for purity testing after solid storage stability study, and one 10 mg sample was weighed for XRPD testing after solid storage stability study) and placed in a glass vial. In a 25° C./60% RH solid storage stability test, the amorphous salt solid was placed in a 25° C./60% RH constant temperature and humidity chamber, and placed in the dark for 1 week (i.e. “solid/25° C./60% RH/open/1 week”), and in a 60° C. solid storage stability test, the amorphous salt solid was sealed in an oven at 60° C. and heated for 1 week in the dark (i.e. “solid/60° C./closed container/1 week”). Then the sample was taken out for purity testing, crystal form detection and appearance observation, respectively.

[2] = Solid solubility test (2 h and 24 h); type: physicochemical; settings: for Solubility measured at 2 h: 37° C., based on free base
Procedure: 5 samples were weighed for each amorphous salt solid (equivalent to 20 mg of free base), and 10 mL of the following solvents were respectively added: 0.1N HCl solution (pH 1.0), 50 mM phosphate buffer (pH 4.5), FeSSIF-V1 (pH 5.0), FaSSIF-V1 (pH 6.5) and SGF (pH 2.0), and stirred at 37° C. for 2 h. The suspension was then centrifuged at 37° C., the supernatant was measured for solubility by HPLC, and the solid fraction was measured for XRPD. The target solubility was at least 2 mg (based on free base)/mL.

[3] = Solid solubility test (2 h and 24 h); type: physicochemical; settings: for Solubility measured at 24 h: 37° C., based on free base
[4] = Drug absorption test in male Han-Wister rats; type: in vivo; settings: for F: intragastric versus intravenous administration, doses 80, 100, 93.2, 81.1 mg/kg for Example 1, 2, 3, 4
Procedure: Intravenous administration: Three healthy male Han-Wister rats having a body weight of 250-350 g were provided by Beijing Vital River Laboratory Animal Technology Co., Ltd. The above compound of Example 1 was administered intravenously at the doses (calculated based on free base) listed in Table 1 below, respectively. Before administration and 15 min, 0.5 h, 1.0 h, 2.0 h, 4.0 h, 8.0 h, 12 h, and 24 h after administration, jugular vein puncture was performed to take 0.05 mL of blood, plasma was separated and prepared, and the drug concentration in the plasma was measured by liquid chromatography-tandem mass spectrometry (LC-MS) to obtain a drug concentration-time curve.
Intragastric administration: Twelve healthy male Han-Wister rats having a body weight of 250-350 g were provided by Beijing Vital River Laboratory Animal Technology Co., Ltd. and randomly divided into 4 groups. The above compounds of Example 1, Example 2, Example 3 and Example 4 were administered intragastrically at the doses (calculated based on free base) listed in Table 2 below, respectively. Before administration and 15 min, 0.5 h, 1.0 h, 2.0 h, 4.0 h, 8.0 h, 12 h, and 24 h after administration, jugular vein puncture was performed to take 0.05 mL of blood, plasma was separated and prepared, and the drug concentration in the plasma was measured by liquid chromatography-tandem mass spectrometry (LC-MS) to obtain a drug concentration-time curve.

[5] = Test BS1: solid/25° C./60% RH/open/1 week
[6] = Test BS2: solid/60° C./closed container/1 week
[7] = intragastric administration, doses 80, 100, 93.2, 81.1 mg/kg for Example 1, 2, 3, 4 (calculated based on free base)

Row | SMILES | Color [1, 5] | Morphology (XRPD crystallinity) [1, 5] | Morphology (agglomeration, appearance) [1, 5] | Color [1, 6] | Morphology (XRPD crystallinity) [1, 6] | pH measured at 2 h ([2]; Test ES4: FaSSIF-V1 (pH 6.5)) | Solubility measured at 2 h ([2]; Test ES4: FaSSIF-V1 (pH 6.5)) | AUC0-t [4, 7] | Cmax [4, 7] | F [4] | Morphology (agglomeration, appearance) [1, 6] | T1/2 [4, 7] | further results
1 | C=CC(=O)Nc1cc(Nc2ncnc(-c3cn(C)c4ccccc34)n2)c(OC)cc1N(C)CCN(C)C [Example 1] | no color change | amorphous (FIG. 89), | no agglomeration | no color change | medium crystallinity | (6.8) | >2 mg/mL | 3968 ng·h/mL | 583 ng/mL | 11.1% | – | – | physical and chemical stability (in words) ([1]; solid/25° C./60% RH/open/1 week, listed as amorphous free base): good physical and chemical stability; physical and chemical stability (in words) ([1]; solid/60° C./closed container/1 week, listed as amorphous free base): transformed from amorphous to a moderate crystallinity; pH measured at 24 h ([3]; Test ES3: FeSSIF-VI (pH 5.0)): (5.0); Solubility measured at 24 h ([3]; Test ES3: FeSSIF-VI (pH 5.0)): >2000 µg/mL; pH measured at 24 h ([3]; Test ES4: FaSSIF-VI (pH 6.5)): (6.8); Solubility measured at 24 h ([3]; Test ES4: FaSSIF-VI (pH 6.5)): >2000 µg/mL; half-life ([4]; male, Han-Wister, rat, plasma, iv, 1 mg/kg, intravenous administration, 1.0 mg/kg (calculated based on free base), rat plasma): 2.99 h; AUC0-t ([4]; male, Han-Wister, rat, plasma, iv, 1 mg/kg, intravenous administration, 1.0 mg/kg (calculated based on free base), rat plasma, read-out: AUC0-t): 446 ng·h/mL; Cmax ([4]; male, Han-Wister, rat, plasma, iv, 1 mg/kg, intravenous administration, 1.0 mg/kg (calculated based on free base), rat plasma, read-out: Cmax): 364 ng/mL; half-life ([4]; male, Han-Wister, rat, plasma, po, 81.1 mg/kg, intragastric administration, doses 80, 100, 93.2, 81.1 mg/kg for Example 1, 2, 3, 4 (calculated based on free base)): 3.36 h
2 | C=CC(=O)Nc1cc(Nc2ncnc(-c3cn(C)c4ccccc34)n2)c(OC)cc1N(C)CCN(C)C [Example 2] | no color change | amorphous (FIG. 90), | no agglomeration | no color change | amorphous (FIG. 90), | (6.5) | >2 mg/mL | 13060 ng·h/mL | 1024 ng/mL | 29.3% | no agglomeration | 6.65 h | chemical and physical stability after storage ([1]; listed as 1 eq. hydrochloride salt): chemically unstable; chemical and physical stability after storage ([1]; listed as amorphous 1 eq. hydrochloride salt): chemically unstable; physical and chemical stability (in words) ([1]; solid/25° C./60% RH/open/1 week, listed as amorphous 1 eq. hydrochloride salt): good physical and chemical stability
3 | C=CC(=O)Nc1cc(Nc2ncnc(-c3cn(C)c4ccccc34)n2)c(OC)cc1N(C)CCN(C)C [Example 3] | slight color change | amorphous (FIG. 91), | partial agglomeration | no color change | amorphous (FIG. 91), | (6.1) | >2 mg/mL | 11213 ng·h/mL | 1020 ng/mL | 27.0% | no agglomeration | 6.04 h | chemical and physical stability after storage ([1]; listed as 2 eq. hydrochloride salt): physically unstable; chemical and physical stability after storage ([1]; listed as amorphous 2 eq. hydrochloride salt): physically unstable; physical and chemical stability (in words) ([1]; solid/25° C./60% RH/open/1 week, listed as amorphous 2 eq. hydrochloride salt): slight color change and showed a certain hygroscopicity (partial agglomeration); physical and chemical stability (in words) ([1]; solid/60° C./closed container/1 week, listed as amorphous 2 eq. hydrochloride salt): good physical and chemical stability
4 | C=CC(=O)Nc1cc(Nc2ncnc(-c3cn(C)c4ccccc34)n2)c(OC)cc1N(C)CCN(C)C [Example 9] | slight color change | amorphous (FIG. 101), | agglomeration (FIG. 102) | no color change | low crystallinity | (6.1) | >2 mg/mL | – | – | – | – | – | chemical and physical stability after storage ([1]; listed as 1 eq. maleate salt): chemically unstable; also recorded: physically unstable; chemical and physical stability after storage ([1]; listed as amorphous 1 eq. maleate salt): chemically unstable; also recorded: physically unstable; physical and chemical stability (in words) ([1]; solid/25° C./60% RH/open/1 week, listed as amorphous 1 eq. maleate salt): slight color change and showed a certain hygroscopicity (agglomeration); physical and chemical stability (in words) ([1]; solid/60° C./closed container/1 week, listed as amorphous 1 eq. maleate salt): transformed from amorphous to a low crystallinity
5 | C=CC(=O)Nc1cc(Nc2ncnc(-c3cn(C)c4ccccc34)n2)c(OC)cc1N(C)CCN(C)C [Example 10] | no color change | no crystal form | – | no color change | no crystal form | (6.4) | – | – | – | – | – | – | chemical and physical stability after storage ([1]; listed as 1 eq. hydrobromide salt): chemically and physically stable; chemical and physical stability after storage ([1]; listed as crystalline 1 eq. hydrobromide salt): chemically and physically stable; physical and chemical stability (in words) ([1]; solid/25° C./60% RH/open/1 week, listed as crystalline 1 eq. hydrobromide salt): good physical and chemical stability; physical and chemical stability (in words) ([1]; solid/60° C./closed container/1 week, listed as crystalline 1 eq. hydrobromide salt): good physical and chemical stability; XRPD measured at 2 h (solid fraction) ([2]; Test ES4: FaSSIF-V1 (pH 6.5)): hydrobromide; Solubility measured at 2 h ([2]; Test ES5: SGF (pH 2.0)): >2 mg/ml mg/mL

— patent US20240391902A1, “Crystalline Form of Compound” (Shenzhen Forward Pharmaceuticals Co., Limited, priority 2020, published 2024)
